≈ marks a conversion by molar mass, not a printed value. Calls of active or inactive are those of the source. The rule behind the calls is not given here.
How the values were obtained:
[1] = Inhibition of recombinant Escherichia coli DNA gyrase AB expressed in Escherichia coli BL21 (DE3) using relaxed pJT519 DNA as substrate preincubated for 20 mins followed by 5'-BODIPY-TMR-TTCTTCTTCT addition and measured after 1 hr by fluorescence anisotropy
[2] = n-octanol/phosphate buffer partition coefficient, log D of the compound at pH 7.4 measured after 1 hr by UV-LC/MS based shake flask method; assay type: physicochemical
[3] = Solubility of the compound by high throughput solubility assay; assay type: physicochemical
[4] = Protein binding in human plasma assessed as unbound fraction at 10 uM measured after 16 hrs by LC-MS/MS based equilibrium dialysis method; assay type: ADME, cell-free
Staphylococcus aureus [5] = assay: Antibacterial activity against methicillin sensitive Staphylococcus aureus ARC516 by broth microdilution method; assay type: functional
Staphylococcus aureus [6] = assay: Antibacterial activity against methicillin sensitive Staphylococcus aureus ARC516 in presence of human serum by broth microdilution method; assay type: functional
Staphylococcus aureus [7] = assay: Antibacterial activity against methicillin/quinolone-resistant Staphylococcus aureus ARC517 by broth microdilution method; assay type: functional
[8] = Ratio of MIC for antibacterial activity against methicillin/quinolone-resistant Staphylococcus aureus ARC517 to protein binding in human plasma assessed as unbound fraction
Escherichia coli = assay: Antibacterial activity against Escherichia coli ARC523 by broth microdilution method; assay type: functional
Streptococcus pneumoniae = assay: Antibacterial activity against Streptococcus pneumoniae ARC548 by broth microdilution method; assay type: functional
Streptococcus pyogenes = assay: Antibacterial activity against Streptococcus pyogenes ARC838 by broth microdilution method; assay type: functional
Haemophilus influenzae = assay: Antibacterial activity against Haemophilus influenzae ARC737 by broth microdilution method; assay type: functional
[9] = Protein binding in mouse plasma assessed as unbound fraction at 10 uM measured after 16 hrs by LC-MS/MS based equilibrium dialysis method; assay type: ADME, cell-free
[10] = Protein binding in rat plasma assessed as unbound fraction at 10 uM measured after 16 hrs by LC-MS/MS based equilibrium dialysis method; assay type: ADME, cell-free
[11] = Plasma clearance in CD-1 mouse at 3 mg/kg, iv administered as 15 mins infusion by LC-MS/MS analysis; assay type: ADME, organism-based; details: in vivo, 0.25 h
[12] = Unbound plasma clearance in CD-1 mouse at 3 mg/kg, iv administered as 15 mins infusion by LC-MS/MS analysis; assay type: ADME, organism-based; details: in vivo, 0.25 h
[13] = Volume of distribution at steady state in Wistar Han rat at 3 mg/kg, iv administered as 15 mins infusion by LC-MS/MS analysis; assay type: ADME, organism-based; details: in vivo, read-out: Vdss
[14] = Half life in Wistar Han rat at 3 mg/kg, iv administered as 15 mins infusion by LC-MS/MS analysis; assay type: ADME, organism-based; details: in vivo
[15] = Oral bioavailability in CD-1 mouse at 10 mg/kg by LC-MS/MS analysis; assay type: ADME, organism-based; details: in vivo
[16] = Oral bioavailability in Wistar Han rat at 10 mg/kg by LC-MS/MS analysis; assay type: ADME, organism-based; details: in vivo
Staphylococcus aureus [17] = assay: Antibacterial activity against methicillin sensitive Staphylococcus aureus ARC516 infected in CD-1 mouse neutropenic thigh infection model assessed as log reduction in colony forming unit at 50 to 75 mg/kg, ip measured after 24 hrs relative to untreated control; assay type: functional; details: dose mg/kg 50-75
Staphylococcus aureus [18] = assay: Antibacterial activity against methicillin sensitive Staphylococcus aureus ARC516 infected in CD-1 mouse neutropenic thigh infection model assessed as log reduction in colony forming unit at 50 to 75 mg/kg, ip measured after 24 hrs relative to initial treatment control; assay type: functional; details: dose mg/kg 50-75
Staphylococcus aureus [19] = assay: Antibacterial activity against methicillin sensitive Staphylococcus aureus ARC516 infected in CD-1 mouse neutropenic thigh infection model assessed as reduction in colony forming unit at 10 to 25 mg/kg, ip measured after 24 hrs; assay type: functional, organism-based
L5178Y = assay: Genotoxicity in mouse L5178Y cells using DAPI staining by microscopy based micronucleation assay; assay type: toxicity, cell-based
[20] = Plasma clearance in Wistar Han rat at 3 mg/kg, iv administered as 15 mins infusion by LC-MS/MS analysis; assay type: ADME, organism-based; design: unit not given here; details: in vivo, 0.25 h
[21] = Unbound plasma clearance in Wistar Han rat at 3 mg/kg, iv administered as 15 mins infusion by LC-MS/MS analysis; assay type: ADME, organism-based; design: unit not given here; details: in vivo, 0.25 h
[22] = Volume of distribution at steady state in CD-1 mouse at 3 mg/kg, iv administered as 15 mins infusion by LC-MS/MS analysis; assay type: ADME, organism-based; details: in vivo, read-out: Vdss
[23] = Half life in CD-1 mouse at 3 mg/kg, iv administered as 15 mins infusion by LC-MS/MS analysis; assay type: ADME, organism-based; details: in vivo
Staphylococcus aureus [24] = assay: Antibacterial activity against methicillin sensitive Staphylococcus aureus ARC516 infected in CD-1 mouse neutropenic thigh infection model assessed as log reduction in colony forming unit at 25 to 150 mg/kg, ip measured after 12 hrs relative to initial treatment control; assay type: functional; details: dose mg/kg 25-150
Staphylococcus aureus [25] = assay: Antibacterial activity against methicillin sensitive Staphylococcus aureus ARC516 infected in CD-1 mouse neutropenic thigh infection model assessed as log reduction in colony forming unit at 150 mg/kg, ip measured after 24 hrs relative to initial treatment control; assay type: functional; details: dose mg/kg 25-150
Staphylococcus aureus [26] = assay: Antibacterial activity against methicillin sensitive Staphylococcus aureus ARC516 infected in CD-1 mouse neutropenic thigh infection model assessed as log reduction in colony forming unit at 150 mg/kg, ip measured after 24 hrs relative to untreated control; assay type: functional
Staphylococcus aureus [27] = assay: Antibacterial activity against methicillin sensitive Staphylococcus aureus ARC516 infected in CD-1 mouse neutropenic thigh infection model assessed as reduction in colony forming unit at 25 to 50 mg/kg, ip measured after 24 hrs; assay type: functional, organism-based
Staphylococcus aureus [28] = assay: Antibacterial activity against methicillin sensitive Staphylococcus aureus ARC516 infected in CD-1 mouse neutropenic thigh infection model assessed as log reduction in colony forming unit at 100 mg/kg, ip bid in presence of ABT relative to initial treatment control; assay type: functional
Staphylococcus aureus [29] = assay: Antibacterial activity against methicillin sensitive Staphylococcus aureus ARC516 infected in CD-1 mouse neutropenic thigh infection model assessed as reduction in colony forming unit at 20 mg/kg, ip bid in presence of ABT; assay type: functional, organism-based

Compound | IC50 [1] | logD at 1 h [2] | solubility [3] | fraction unbound at 16 h, 10 µM [4] | MIC (Staphylococcus aureus [5]) | MIC (Staphylococcus aureus [6]) | MIC (Staphylococcus aureus [7]) | Ratio [8] | MIC (Escherichia coli) | MIC (Streptococcus pneumoniae) | MIC (Streptococcus pyogenes) | fraction unbound at 16 h, 10 µM [9] | fraction unbound at 16 h, 10 µM [10] | CL [11] | CL free [12] | Vd [13] | half-life [14] | bioavailability [15] | bioavailability [16] | NOAEL (L5178Y) | further results
C[C@@H]1CN2c3c(cc4c(-n5cncn5)noc4c3F)CC3(C(=O)NC(=O)NC3=O)[C@H]2[C@H](C)O1 | 220 nM | 1.7 | 250 µM (≈ 114 µg/mL) | 0.13 | 0.049 µM (≈ 0.0223 µg/mL) | < 0.2 µM | 0.2 µM (≈ 0.0911 µg/mL) | 1.4 | 12.5 µM (≈ 5.69 µg/mL) | 0.39 µM (≈ 0.178 µg/mL) | 0.39 µM (≈ 0.178 µg/mL) | 0.12 | 0.1 | 1.26 mL/h/kg | 10.5 mL/h/kg | 1.9 L/kg | 2.41 h | 37% | 62% | < 6 µM | MIC (Haemophilus influenzae): 0.39 µM (≈ 0.178 µg/mL); log(activity) (Staphylococcus aureus [17]): 4; log(activity) (Staphylococcus aureus [18]): >2; Activity (Staphylococcus aureus [19]): Active
COc1ncnn1-c1noc2c(F)c3c(cc12)CC1(C(=O)NC(=O)NC1=O)[C@H]1[C@H](C)O[C@H](C)CN31 | 320 nM | 1.7 | 900 µM (≈ 437 µg/mL) | 0.14 | 0.098 µM (≈ 0.0476 µg/mL) | 0.39 µM | 0.39 µM (≈ 0.189 µg/mL) | – | 30 µM (≈ 14.6 µg/mL) | 0.39 µM (≈ 0.189 µg/mL) | 0.39 µM (≈ 0.189 µg/mL) | 0.2 | 0.13 | 0.66 mL/h/kg | 3.3 mL/h/kg | 1.9 L/kg | 1.69 h | 62% | 48% | 25 µM | MIC (Haemophilus influenzae): 0.78 µM (≈ 0.379 µg/mL); CL [20]: 13; CL free [21]: 93; Vd [22]: 2.4 L/kg; half-life [23]: 2.52 h; log(activity) (Staphylococcus aureus [24]): 1; log(activity) (Staphylococcus aureus [25]): 2; log(activity) (Staphylococcus aureus [26]): 4.5; Activity (Staphylococcus aureus [27]): inactive
C[C@@H]1CN2c3c(cc4c(N5C(=O)OC[C@@H]5C)noc4c3F)CC3(C(=O)NC(=O)NC3=O)[C@H]2[C@H](C)O1 [ZOLIFLODACIN] | 170 nM | 1.7 | – | 0.18 | 0.2 µM (≈ 0.0975 µg/mL) | 0.39 µM | 0.78 µM (≈ 0.38 µg/mL) | 4.3 | 6.2 µM (≈ 3.02 µg/mL) | – | – | 0.17 | 0.13 | 3.42 mL/h/kg | 20.1 mL/h/kg | 1.5 L/kg | 0.79 h | 43.5% | 31% | > 400 µM | Vd [22]: 3 L/kg; half-life [23]: 0.61 h; log(activity) (Staphylococcus aureus [28]): 1.8; Activity (Staphylococcus aureus [29]): Active

— ChEMBL document CHEMBL4725408, “Antibacterial Spiropyrimidinetriones with N-Linked Azole Substituents on a Benzisoxazole Scaffold Targeting DNA Gyrase” (J Med Chem, 2020)
